Test results taken from PubChem BioAssay AID624286 (Southern Research Specialized Biocontainment Screening …, 2012).
The source made the active and inactive calls. No rule for the calls is given here.

system: VEEV TC-83 infected cells, virus titer reduction; assay: secondary cell-based VEEV TC-83 titer reduction, set 3 of VEEV inhibitor project (AID 624286); conditions: at 5 µM; hits give low values

Point of comparison: CCN1CCN(Cc2nc3ccc([N+](=O)[O-])cc3c(=O)n2-c2ccc(F)cc2)CC1, log virus titer change -5.88. Against it:
- CCN1CCN(Cc2nc3ccc([N+](=O)[O-])cc3c(=O)n2-c2ccccc2)CC1 — lower, < -7.54
- O=c1c2cc([N+](=O)[O-])ccc2nc(CN2CCNCC2)n1-c1ccccc1F — lower, < -7.76
- O=c1c2cc([N+](=O)[O-])ccc2nc(CN2CCNCC2)n1-c1ccccc1 — lower, < -7.76
- CCN1CCN(Cc2nc3ccc([N+](=O)[O-])cc3c(=O)n2-c2cccc(F)c2)CC1 — lower, < -7.11
- CN1CCN(Cc2nc3ccc([N+](=O)[O-])cc3c(=O)n2-c2ccccc2F)CC1 — lower, < -7.76

With O=c1c2cc([N+](=O)[O-])ccc2nc(CN2CCCCC2)n1-c1ccccc1F the log virus titer change was -0.366 (inactive).
With CCN1CCN(Cc2nc3ccc(I)cc3c(=O)n2-c2ccccc2)CC1 the log virus titer change was -0.33 (inactive).
